According to BindingDB's records for doi:10.1021/acs.jmedchem.1c00920 (Astrazeneca, 2021):
pIC50: −log10 of the molar value.

Biological target: Tyrosine-protein kinase Mer (Homo sapiens) (UniProt Q12866)
Assay: Inhibition of FLAG-tagged MER (unknown origin) transfected in Cos-7cells assessed as phosphorylation level incubated for 1 hr by ELISA

Sequence of Tyrosine-protein kinase Mer (Homo sapiens) (Q12866 whole entry, looked up): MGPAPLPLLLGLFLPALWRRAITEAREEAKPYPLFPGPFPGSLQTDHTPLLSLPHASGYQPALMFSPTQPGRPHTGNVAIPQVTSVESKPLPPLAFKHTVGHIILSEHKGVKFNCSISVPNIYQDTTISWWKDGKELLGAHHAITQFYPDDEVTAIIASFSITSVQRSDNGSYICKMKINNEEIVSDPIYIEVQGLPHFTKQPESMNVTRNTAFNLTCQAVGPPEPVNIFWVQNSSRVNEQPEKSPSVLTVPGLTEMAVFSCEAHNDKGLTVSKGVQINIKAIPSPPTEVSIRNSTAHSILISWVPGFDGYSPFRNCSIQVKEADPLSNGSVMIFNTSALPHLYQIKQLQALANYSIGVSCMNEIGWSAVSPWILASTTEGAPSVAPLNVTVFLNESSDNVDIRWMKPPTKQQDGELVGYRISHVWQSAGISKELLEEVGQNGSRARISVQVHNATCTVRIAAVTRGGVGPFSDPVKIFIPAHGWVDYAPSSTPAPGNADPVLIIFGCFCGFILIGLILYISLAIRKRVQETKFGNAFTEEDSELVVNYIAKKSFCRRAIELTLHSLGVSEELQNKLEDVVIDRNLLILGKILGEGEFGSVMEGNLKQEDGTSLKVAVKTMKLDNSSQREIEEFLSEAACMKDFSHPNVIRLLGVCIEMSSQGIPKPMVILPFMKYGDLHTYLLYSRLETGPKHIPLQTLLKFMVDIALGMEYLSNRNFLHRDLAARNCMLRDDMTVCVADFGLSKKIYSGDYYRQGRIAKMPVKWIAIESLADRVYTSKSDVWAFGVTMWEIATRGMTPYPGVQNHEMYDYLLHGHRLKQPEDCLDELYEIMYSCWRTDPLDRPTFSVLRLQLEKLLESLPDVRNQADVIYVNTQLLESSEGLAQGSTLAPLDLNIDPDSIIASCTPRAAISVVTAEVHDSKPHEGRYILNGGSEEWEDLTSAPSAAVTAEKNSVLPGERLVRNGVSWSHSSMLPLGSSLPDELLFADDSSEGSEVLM

Row | pIC50 | SMILES
1 | 6.70 | Cc1nn(C)c(C)c1-c1ccc(-c2nnc(N(C)Cc3ccc4nccn4c3)o2)cc1
2 | 6.50 | Cc1nn(C)c(C)c1-c1ccc(-c2nnc(N(C)Cc3ccc4nccn4c3)o2)c(F)c1
3 | 6.30 | COc1cc(-c2c(C)nn(C)c2C)ccc1-c1nnc(N(C)Cc2ccc3nccn3c2)o1
4 | 7.49 | Cc1cc(-c2c(C)nn(C)c2C)ccc1-c1nnc(N(C)Cc2ccc3nccn3c2)o1
5 | 6.10 | Cc1cc(-c2c(C)nn(C)c2C)cnc1-c1nnc(N(C)Cc2ccc3nccn3c2)o1
6 | 5.80 | Cc1nc(-c2c(C)nn(C)c2C)ccc1-c1nnc(N(C)Cc2ccc3nccn3c2)o1
7 | 5.60 | Cc1cc(-c2c(C)n[nH]c2C)ccc1-c1nnc(N(C)Cc2ccc3nccn3c2)o1
8 | 7.10 | Cc1cc(-c2cnn(C)c2C)ccc1-c1nnc(N(C)Cc2ccc3nccn3c2)o1
9 | 6.50 | Cc1cc(-c2c(C#N)nn(C)c2C)ccc1-c1nnc(N(C)Cc2ccc3nccn3c2)o1
10 | 6.30 | Cc1cc(-c2c(C)nc(C)n2C)ccc1-c1nnc(N(C)Cc2ccc3nccn3c2)o1
11 | 7.49 | Cc1cc(-c2c(C)nn(C)c2C)ccc1-c1nnc(N(C)Cc2ccc3ncc(C(=O)N(C)C)n3c2)o1
12 | 7.49 | Cc1cc(-c2c(C)nn(C)c2C)ccc1-c1nnc(N(C)Cc2ccc3ncc(-c4ccccc4)n3c2)o1
13 | 7.89 | Cc1cc(-c2c(C)nn(C)c2C)ccc1-c1nnc(N(C)Cc2ccc3ncc(-c4cnn(C)c4)n3c2)o1
14 | 6.60 | Cc1cc(-c2c(C)nn(C)c2C)ccc1-c1nnc(N(C)Cc2ccc3ncc(C4CCN(C)CC4)n3c2)o1
15 | 7.70 | Cc1cc(-c2c(C)nn(C)c2C)ccc1-c1nnc(N(C)Cc2ccc3ncc(-c4cnn(CCN(C)C)c4)n3c2)o1
16 | 6.70 | Cc1cc(-c2c(C)nn(C)c2C)cnc1-c1nnc(N(C)Cc2ccc3ncc(-c4cnn(CCN(C)C)c4)n3c2)o1
17 | 7.80 | Cc1cc(-c2c(C)nn(C)c2C)cnc1-c1nnc(N(C)Cc2ccc3ncc(-c4ccc(CN(C)C)cc4)n3c2)o1
18 | 7.49 | Cc1cc(-c2c(C)nn(C)c2C)cnc1-c1nnc(N(C)Cc2ccc3ncc(-c4cccc(CN(C)C)c4)n3c2)o1
19 | 7.00 | Cc1cc(-c2c(C)nn(C)c2C)cnc1-c1nnc(N(C)Cc2ccc3ncc(-c4ccc(CN(C)C)nc4)n3c2)o1
20 | 7.89 | Cc1cc(-c2c(C)nn(C)c2C)cnc1-c1nnc(N(C)Cc2ccc3ncc(-c4ccc(CN(C)C)cn4)n3c2)o1
21 | 8.10 | CN1CCN(Cc2ccc(-c3ccc(CO[C@H]4CCC[C@@H]4NC(=O)c4cc(-c5cnn(C)c5)cnc4N)cc3)cc2)CC1 [US10125118, Example 172]
